{"source": "ChEMBL document CHEMBL5321213", "about": "“Nicolaioidesin C: An Antiausterity Agent Shows Promising Antitumor Activity in a Pancreatic Cancer Xenograft Mouse Model” (J Nat Prod, 2023)", "key": {"PANC-1 [1]": {"system": "PANC-1", "experiment": "Antimetastatic activity in human PANC-1 cells in nutrient-rich medium assessed as open wound area at 20 uM measured every 15 mins for 24 hrs by live cell imaging analysis (reference value: 16%)", "format": "functional"}, "MIA PaCa-2 [2]": {"system": "MIA PaCa-2", "experiment": "Antimetastatic activity in human MIA PaCa-2 cells in nutrient-rich medium assessed as open wound area at 20 uM measured every 15 mins for 48 hrs by live cell imaging analysis (reference value: 17%)", "format": "functional"}, "PANC-1 [3]": {"system": "PANC-1", "experiment": "Antimetastatic activity in human PANC-1 cells in DMEM media assessed as inhibition of colony formation at 10 uM incubated for 24 hrs followed by replacement with fresh medium and measured after 10 days by crystal violet staining-based assay relative to control", "format": "functional"}, "MIA PaCa-2 [4]": {"system": "MIA PaCa-2", "experiment": "Antitumor activity against human MIA PaCa-2 cells xenografted in athymic BALB/c-nu mouse assessed as reduction in p-mTOR level in tumor at 2 to 10 mg/kg/day, ip administered five times per week for 4 weeks by immunohistochemistry analysis", "format": "functional, organism-based", "conditions": "dose 2-10 mg/kg/day"}, "MIA PaCa-2 [5]": {"system": "MIA PaCa-2", "experiment": "Antitumor activity against human MIA PaCa-2 cells xenografted in athymic BALB/c-nu mouse assessed as fold change in sphinganine level in tumor at 10 mg/kg/day, ip administered five times per week for 4 weeks by LC-MS analysis", "format": "functional"}, "MIA PaCa-2 [6]": {"system": "MIA PaCa-2", "experiment": "Antitumor activity against human MIA PaCa-2 cells xenografted in athymic BALB/c-nu mouse assessed as fold change in methionine level in tumor at 10 mg/kg/day, ip administered five times per week for 4 weeks by LC-MS analysis", "format": "functional"}, "MIA PaCa-2 [7]": {"system": "MIA PaCa-2", "experiment": "Antitumor activity against human MIA PaCa-2 cells xenografted in athymic BALB/c-nu mouse assessed as fold change in leucine level in tumor at 10 mg/kg/day, ip administered five times per week for 4 weeks by LC-MS analysis", "format": "functional"}, "MIA PaCa-2 [8]": {"system": "MIA PaCa-2", "experiment": "Antitumor activity against human MIA PaCa-2 cells xenografted in athymic BALB/c-nu mouse assessed as fold change in cytidine level in tumor at 10 mg/kg/day, ip administered five times per week for 4 weeks by LC-MS analysis", "format": "functional"}, "MIA PaCa-2 [9]": {"system": "MIA PaCa-2", "experiment": "Antitumor activity against human MIA PaCa-2 cells xenografted in athymic BALB/c-nu mouse assessed as fold change in 5'-methylthioadenosine level in tumor at 10 mg/kg/day, ip administered five times per week for 4 weeks by LC-MS analysis", "format": "functional"}, "MIA PaCa-2 [10]": {"system": "MIA PaCa-2", "experiment": "Antitumor activity against human MIA PaCa-2 cells xenografted in athymic BALB/c-nu mouse assessed as fold change in asparagine level in tumor at 10 mg/kg/day, ip administered five times per week for 4 weeks by LC-MS analysis", "format": "functional"}, "MIA PaCa-2 [11]": {"system": "MIA PaCa-2", "experiment": "Antitumor activity against human MIA PaCa-2 cells xenografted in athymic BALB/c-nu mouse assessed as fold change in 2'-deoxycytidine level in tumor at 10 mg/kg/day, ip administered five times per week for 4 weeks by LC-MS analysis", "format": "functional"}, "MIA PaCa-2 [12]": {"system": "MIA PaCa-2", "experiment": "Antitumor activity against human MIA PaCa-2 cells xenografted in athymic BALB/c-nu mouse assessed as fold change in uracil level in tumor at 10 mg/kg/day, ip administered five times per week for 4 weeks by LC-MS analysis", "format": "functional"}, "PANC-1 [13]": {"system": "PANC-1", "experiment": "Antimetastatic activity in human PANC-1 cells in nutrient-rich medium assessed as open wound area at 20 uM measured every 15 mins for 48 hrs by live cell imaging analysis relative to control", "format": "functional"}, "PANC-1 [14]": {"system": "PANC-1", "experiment": "Inhibition of autophagy in human PANC-1 cells in DMEM medium assessed as downregulation of LC3 protein expression at 5 to 20 uM measured after 6 hrs by Western blot analysis", "format": "functional, cell-based", "conditions": "dose 5-20 µM"}, "MIA PaCa-2 [15]": {"system": "MIA PaCa-2", "experiment": "Inhibition of autophagy in human MIA PaCa-2 cells in DMEM medium assessed as downregulation of LC3 protein expression at 5 to 20 uM measured after 6 hrs by Western blot analysis", "format": "functional, cell-based", "conditions": "dose 5-20 µM"}, "MIA PaCa-2 [16]": {"system": "MIA PaCa-2", "experiment": "Antitumor activity against human MIA PaCa-2 cells xenografted in athymic BALB/c-nu mouse assessed as fold change in 3-sulfolacticacid level in tumor at 10 mg/kg/day, ip administered five times per week for 4 weeks by LC-MS analysis", "format": "functional"}, "MIA PaCa-2 [17]": {"system": "MIA PaCa-2", "experiment": "Antitumor activity against human MIA PaCa-2 cells xenografted in athymic BALB/c-nu mouse assessed as fold change in cytidine diphosphate ethanolamine level in tumor at 10 mg/kg/day, ip administered five times per week for 4 weeks by LC-MS analysis", "format": "functional"}, "MIA PaCa-2 [18]": {"system": "MIA PaCa-2", "experiment": "Antitumor activity against human MIA PaCa-2 cells xenografted in athymic BALB/c-nu mouse assessed as fold change in arabinosyl hypoxanthine level in tumor at 2 mg/kg/day, ip administered five times per week for 4 weeks by LC-MS analysis", "format": "functional"}, "MIA PaCa-2 [19]": {"system": "MIA PaCa-2", "experiment": "Antitumor activity against human MIA PaCa-2 cells xenografted in athymic BALB/c-nu mouse assessed as fold change in benzoic acid level in tumor at 2 mg/kg/day, ip administered five times per week for 4 weeks by LC-MS analysis", "format": "functional"}, "MIA PaCa-2 [20]": {"system": "MIA PaCa-2", "experiment": "Antitumor activity against human MIA PaCa-2 cells xenografted in athymic BALB/c-nu mouse assessed as fold change in biotin level in tumor at 2 mg/kg/day, ip administered five times per week for 4 weeks by LC-MS analysis", "format": "functional"}, "MIA PaCa-2 [21]": {"system": "MIA PaCa-2", "experiment": "Antitumor activity against human MIA PaCa-2 cells xenografted in athymic BALB/c-nu mouse assessed as fold change in cytidine 5'-monophosphate level in tumor at 2 mg/kg/day, ip administered five times per week for 4 weeks by LC-MS analysis", "format": "functional"}, "MIA PaCa-2 [22]": {"system": "MIA PaCa-2", "experiment": "Antitumor activity against human MIA PaCa-2 cells xenografted in athymic BALB/c-nu mouse assessed as fold change in desthiobiotin level in tumor at 2 mg/kg/day, ip administered five times per week for 4 weeks by LC-MS analysis", "format": "functional"}, "MIA PaCa-2 [23]": {"system": "MIA PaCa-2", "experiment": "Antitumor activity against human MIA PaCa-2 cells xenografted in athymic BALB/c-nu mouse assessed as fold change in glycerol 3-phosphate level in tumor at 2 mg/kg/day, ip administered five times per week for 4 weeks by LC-MS analysis", "format": "functional"}, "MIA PaCa-2 [24]": {"system": "MIA PaCa-2", "experiment": "Antitumor activity against human MIA PaCa-2 cells xenografted in athymic BALB/c-nu mouse assessed as fold change in phenyl alanine level in tumor at 2 mg/kg/day, ip administered five times per week for 4 weeks by LC-MS analysis", "format": "functional"}, "MIA PaCa-2 [25]": {"system": "MIA PaCa-2", "experiment": "Antitumor activity against human MIA PaCa-2 cells xenografted in athymic BALB/c-nu mouse assessed as fold change in valine level in tumor at 2 mg/kg/day, ip administered five times per week for 4 weeks by LC-MS analysis", "format": "functional"}, "MIA PaCa-2 [26]": {"system": "MIA PaCa-2", "experiment": "Antitumor activity against human MIA PaCa-2 cells xenografted in athymic BALB/c-nu mouse assessed as fold change in N-acetyl- L-glutamic acid level in tumor at 2 mg/kg/day, ip administered five times per week for 4 weeks by LC-MS analysis", "format": "functional"}, "MIA PaCa-2 [27]": {"system": "MIA PaCa-2", "experiment": "Antitumor activity against human MIA PaCa-2 cells xenografted in athymic BALB/c-nu mouse assessed as fold change in N-acetylneuraminic acid level in tumor at 2 mg/kg/day, ip administered five times per week for 4 weeks by LC-MS analysis", "format": "functional"}, "MIA PaCa-2 [28]": {"system": "MIA PaCa-2", "experiment": "Antitumor activity against human MIA PaCa-2 cells xenografted in athymic BALB/c-nu mouse assessed as fold change in nicotinamide level in tumor at 2 mg/kg/day, ip administered five times per week for 4 weeks by LC-MS analysis", "format": "functional"}}, "note": "Active and inactive are the calls of the source. The calls are words filed in the database; no cut-off is given here.", "data": [{"smiles": "COc1cc(O)c(C(=O)[C@@H]2CC=C(CCC=C(C)C)C[C@H]2c2ccccc2)c(O)c1", "values": [{"measurement": "Activity", "setting": "PANC-1 [1]", "result": 36, "unit": "%"}, {"measurement": "Activity", "setting": "MIA PaCa-2 [2]", "result": 66, "unit": "%"}, {"measurement": "inhibition at 10 µM", "setting": "PANC-1 [3]", "result": 67, "unit": "%"}, {"measurement": "Activity", "setting": "MIA PaCa-2 [4]", "result": "Active"}, {"measurement": "fold change (FC)", "setting": "MIA PaCa-2 [5]", "result": 3.68}, {"measurement": "fold change (FC)", "setting": "MIA PaCa-2 [6]", "result": 0.38}, {"measurement": "fold change (FC)", "setting": "MIA PaCa-2 [7]", "result": 0.41}, {"measurement": "fold change (FC)", "setting": "MIA PaCa-2 [8]", "result": 0.35}, {"measurement": "fold change (FC)", "setting": "MIA PaCa-2 [9]", "result": 0.25}, {"measurement": "fold change (FC)", "setting": "MIA PaCa-2 [10]", "result": 0.29}, {"measurement": "fold change (FC)", "setting": "MIA PaCa-2 [11]", "result": 0.31}, {"measurement": "fold change (FC)", "setting": "MIA PaCa-2 [12]", "result": 0.09}, {"measurement": "Activity", "setting": "PANC-1 [13]", "result": 24, "unit": "%"}, {"measurement": "inhibition", "setting": "PANC-1 [14]", "result": "inactive"}, {"measurement": "inhibition", "setting": "MIA PaCa-2 [15]", "result": "inactive"}, {"measurement": "fold change (FC)", "setting": "MIA PaCa-2 [16]", "result": 0.44}, {"measurement": "fold change (FC)", "setting": "MIA PaCa-2 [17]", "result": 0.16}, {"measurement": "fold change (FC)", "setting": "MIA PaCa-2 [18]", "result": 0.46}, {"measurement": "fold change (FC)", "setting": "MIA PaCa-2 [19]", "result": 0.43}, {"measurement": "fold change (FC)", "setting": "MIA PaCa-2 [20]", "result": 0.86}, {"measurement": "fold change (FC)", "setting": "MIA PaCa-2 [21]", "result": 0.4}, {"measurement": "fold change (FC)", "setting": "MIA PaCa-2 [22]", "result": 0.63}, {"measurement": "fold change (FC)", "setting": "MIA PaCa-2 [23]", "result": 0.4}, {"measurement": "fold change (FC)", "setting": "MIA PaCa-2 [24]", "result": 0.44}, {"measurement": "fold change (FC)", "setting": "MIA PaCa-2 [25]", "result": 0.44}, {"measurement": "fold change (FC)", "setting": "MIA PaCa-2 [26]", "result": 0.45}, {"measurement": "fold change (FC)", "setting": "MIA PaCa-2 [27]", "result": 0.33}, {"measurement": "fold change (FC)", "setting": "MIA PaCa-2 [28]", "result": 0.52}]}]}
